Values after ≈ are worked out from the molar mass of the structure shown.
Each compound was assayed on Staphylococcus aureus (Isolate ID ATCC 29213) (assay: Bacterial assay: MIC by broth microdilution or agar dilution (CLSI), S. aureus ATCC 29213). Settings: Staphylococcus aureus, ATCC29213, read-out: S. aureus MIC (μg/mL) Activity Range, S. aureus (ATCC29213).
Type: cell-based
Summary of the method: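 MICs by CLSI broth microdilution or agar dilution against S. aureus ATCC 29213 and its FtsZ-G196A mutant. Values reported as ranges: A ≤0.25 μg/mL, B >0.25–1.0, C >1.0–16, D >16 μg/mL.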
`C=CCc1oc(C(C)Oc2ccc(F)c(C(N)=O)c2F)nc1-c1ccc(Cl)cc1` (stereo not drawn) [Compound 7] showed an MIC of 0.25 to 1 µg/mL (≈ 0.597 to 2.39 µM). With `NC(=O)c1c(F)ccc(OC(CO)c2csc(-c3ccc(Cl)cc3)n2)c1F` (stereo not drawn) [Compound 258, 3-(1-(2-(4-chlorophenyl)thiazol-4-yl)-2-hydroxyethoxy)-2,6-difluorobenzamide] the MIC was 1 to 16 µg/mL (≈ 2.43 to 38.9 µM). `NCCC(Oc1ccc(F)c(C(N)=O)c1F)c1nc(-c2ccc(C(F)(F)F)cc2)c(Br)o1` (stereo not drawn) [Compound 95, 3-(3-amino-1-(5-bromo-4-(4-(trifluoromethyl)phenyl)oxazol-2-yl)propoxy)-2,6-difluorobenzamide] showed an MIC greater than 16 µg/mL. `NC(=O)c1c(F)ccc(OC(Cn2ccnc2)c2nc(-c3ccc(C(F)(F)F)cc3)c(Br)o2)c1F` (stereo not drawn) [Compound 114, 3-(1-(5-bromo-4-(4-(trifluoromethyl)phenyl)oxazol-2-yl)-2-(1H-imidazol-1-yl)ethoxy)-2,6-difluorobenzamide] was tested, and the MIC was 1 to 16 µg/mL (≈ 1.79 to 28.7 µM). With `NC(=O)c1c(F)ccc(OC(CNC(=O)c2ccccn2)c2nc(-c3ccc(C(F)(F)F)cc3)c(Br)o2)c1F` (stereo not drawn) [Compound 296, N-(2-(5-bromo-4-(4-(trifluoromethyl)phenyl)oxazol-2-yl)-2-(3-carbamoyl-2,4-difluorophenoxy)ethyl)picolinamide] the MIC was less than 0.25 µg/mL. In the case of `NC(=O)CCC(Oc1ccc(F)c(C(N)=O)c1F)c1nc(-c2ccc(C(F)(F)F)cc2)c(Br)o1` (stereo not drawn) [Compound 101, 3-(4-amino-1-(5-bromo-4-(4-(trifluoromethyl)phenyl)oxazol-2-yl)-4-oxobutoxy)-2,6-difluorobenzamide], the MIC is reported as 0.25 to 1 µg/mL (≈ 0.456 to 1.82 µM). In the case of `NC(=O)c1c(F)ccc(OC(CO)c2nc(-c3ccc(F)c(F)c3)c(Br)o2)c1F` (stereo not drawn) [Compound 248, 3-(1-(5-bromo-4-(3,4-difluorophenyl)oxazol-2-yl)-2-hydroxyethoxy)-2,6-difluorobenzamide], the MIC is reported as 1 to 16 µg/mL (≈ 2.1 to 33.7 µM). In the case of `CNCC(=O)OCC(Oc1ccc(F)c(C(N)=O)c1F)c1nc(-c2ccc(C(F)(F)F)cc2)c(Br)o1` (stereo not drawn) [Compound 62, 2-(5-bromo-4-(4-(trifluoromethyl)phenyl)oxazol-2-yl)-2-(3-carbamoyl-2,4-difluorophenoxy)ethyl 2-(methylamino)acetate], the MIC is reported as 0.25 to 1 µg/mL (≈ 0.432 to 1.73 µM). Work on `CN(C)C(=O)OCC(Oc1ccc(F)c(C(N)=O)c1F)c1nc(-c2ccc(C(F)(F)F)cc2)c(Br)o1` (stereo not drawn) [Compound 107, 2-(5-bromo-4-(4-(trifluoromethyl)phenyl)oxazol-2-yl)-2-(3-carbamoyl-2,4-difluorophenoxy)ethyl dimethylcarbamate] yielded an MIC of less than 0.25 µg/mL. Work on `Cc1nnc(CC(Oc2ccc(F)c(C(N)=O)c2F)c2nc(-c3ccc(C(F)(F)F)cc3)c(Br)o2)o1` (stereo not drawn) [Compound 120, 3-(1-(5-bromo-4-(4-(trifluoromethyl)phenyl)oxazol-2-yl)-2-(5-methyl-1,3,4-oxadiazol-2-yl)ethoxy)-2,6-difluorobenzamide] yielded an MIC of 1 to 16 µg/mL (≈ 1.74 to 27.9 µM). `NC(=O)c1c(F)ccc(OC(CO)c2nc(-c3ccc(Cl)nc3)c(Br)o2)c1F` (stereo not drawn) [Compound 241, 3-(1-(5-bromo-4-(6-chloropyridin-3-yl)oxazol-2-yl)-2-hydroxyethoxy)-2,6-difluorobenzamide] showed an MIC of 1 to 16 µg/mL (≈ 2.11 to 33.7 µM). Compound `Cc1nnc(CNC(=O)OCC(Oc2ccc(F)c(C(N)=O)c2F)c2nc(-c3ccc(C(F)(F)F)cc3)c(Br)o2)o1` (stereo not drawn) [Compound 172, 2-(5-bromo-4-(4-(trifluoromethyl)phenyl)oxazol-2-yl)-2-(3-carbamoyl-2,4-difluorophenoxy)ethyl ((5-methyl-1,3,4-oxadiazol-2-yl)methyl)carbamate] has an MIC of 0.25 to 1 µg/mL (≈ 0.387 to 1.55 µM). `NCC(Oc1ccc(F)c(C(N)=O)c1F)c1nc(-c2ccc(C(F)(F)F)cc2)c(Br)o1` (stereo not drawn) [Compound 290, 3-(2-amino-1-(5-bromo-4-(4-(trifluoromethyl)phenyl)oxazol-2-yl)ethoxy)-2,6-difluorobenzamide] gave an MIC of 1 to 16 µg/mL (≈ 1.98 to 31.6 µM). Compound `COc1ncc(-c2nc(C(C)Oc3ccc(F)c(C(N)=O)c3F)sc2Cl)s1` (stereo not drawn) [Compound 35] has an MIC of less than 0.25 µg/mL. `NC(=O)c1c(F)ccc(OC(CO)c2nc(-c3ccc(Cl)cc3)c(Br)o2)c1F` (stereo not drawn) [Compound 39, 3-(1-(5-bromo-4-(4-chlorophenyl)oxazol-2-yl)-2-hydroxyethoxy)-2,6-difluorobenzamide] gave an MIC of less than 0.25 µg/mL. `CC(=O)OCCC(Oc1ccc(F)c(C(N)=O)c1F)c1nc(-c2ccc(C(F)(F)F)cc2)c(Br)o1` (stereo not drawn) [Compound 72, 3-(5-bromo-4-(4-(trifluoromethyl)phenyl)oxazol-2-yl)-3-(3-carbamoyl-2,4-difluorophenoxy)propyl acetate] showed an MIC of 1 to 16 µg/mL. `CCOC(=O)C(Oc1ccc(F)c(C(N)=O)c1F)c1coc(-c2ccc(C(F)(F)F)cc2)n1` (stereo not drawn) [Compound 129, ethyl 2-(3-carbamoyl-2,4-difluorophenoxy)-2-(2-(4-(trifluoromethyl)phenyl)oxazol-4-yl)acetate] showed an MIC of 1 to 16 µg/mL (≈ 2.13 to 34 µM). `CN(C)C(=O)CC(Oc1ccc(F)c(C(N)=O)c1F)c1nc(-c2ccc(C(F)(F)F)cc2)c(Br)o1` (stereo not drawn) [Compound 88, 3-(1-(5-bromo-4-(4-(trifluoromethyl)phenyl)oxazol-2-yl)-3-(dimethylamino)-3-oxopropoxy)-2,6-difluorobenzamide] gave an MIC of 1 to 16 µg/mL (≈ 1.78 to 28.5 µM). `CNC(=O)C(Oc1ccc(F)c(C(N)=O)c1F)c1nc(-c2ccc(Cl)cc2)cs1` (stereo not drawn) [Compound 34, 3-(1-(4-(4-chlorophenyl)thiazol-2-yl)-2-(methylamino)-2-oxoethoxy)-2,6-difluorobenzamide] was tested, and the MIC was less than 0.25 µg/mL. `NC(=O)c1c(F)ccc(OC(C(=O)O)c2nc(-c3ccc(Cl)cc3)c(Cl)o2)c1F` (stereo not drawn) [Compound 53, 2-(3-carbamoyl-2,4-difluorophenoxy)-2-(5-chloro-4-(4-chlorophenyl)oxazol-2-yl)acetic acid] gave an MIC greater than 16 µg/mL. In the case of `NC(=O)c1c(F)ccc(O[C@H](CO)c2nc(-c3ccc(F)cc3)co2)c1F` [Compound 278B, (R)-2,6-difluoro-3-(1-(4-(4-fluorophenyl)oxazol-2-yl)-2-hydroxyethoxy)benzamide], the MIC is reported as greater than 16 µg/mL. Work on `CC(Oc1ccc(F)c(C(N)=O)c1F)c1nc(-c2ccc(Cl)cc2)co1` (stereo not drawn) [Compound 4] yielded an MIC of 1 to 16 µg/mL (≈ 2.64 to 42.2 µM). Work on `CS(=O)(=O)c1ccc(-c2nc(C(CO)Oc3ccc(F)c(C(N)=O)c3F)oc2Br)cc1` (stereo not drawn) [Compound 145, 3-(1-(5-bromo-4-(4-(methylsulfonyl)phenyl)oxazol-2-yl)-2-hydroxyethoxy)-2,6-difluorobenzamide] yielded an MIC greater than 16 µg/mL. In the case of `CNCC(=O)OCC(Oc1ccc(F)c(C(N)=O)c1F)c1nc(-c2ccc(Cl)cc2)c(Cl)o1` (stereo not drawn) [Compound 59, 2-(3-carbamoyl-2,4-difluorophenoxy)-2-(5-chloro-4-(4-chlorophenyl)oxazol-2-yl)ethyl 2-(methylamino)acetate], the MIC is reported as 0.25 to 1 µg/mL (≈ 0.5 to 2 µM). Compound `CN(C)CC(=O)OCC(Oc1ccc(F)c(C(N)=O)c1F)c1nc(-c2ccc(C(F)(F)F)cc2)c(Br)o1` (stereo not drawn) [Compound 57, 2-(5-bromo-4-(4-(trifluoromethyl)phenyl)oxazol-2-yl)-2-(3-carbamoyl-2,4-difluorophenoxy)ethyl 2-(dimethylamino)acetate] has an MIC of 0.25 to 1 µg/mL (≈ 0.422 to 1.69 µM). `NC(=O)c1c(F)ccc(OC(CO)c2nc(-c3ccc(C(F)(F)F)cc3)c(Cl)o2)c1F` (stereo not drawn) [Compound 44, 3-(1-(5-chloro-4-(4-(trifluoromethyl)phenyl)oxazol-2-yl)-2-hydroxyethoxy)-2,6-difluorobenzamide] showed an MIC of 0.25 to 1 µg/mL (≈ 0.54 to 2.16 µM). In the case of `Cc1nc(C)c(-c2nc(C(CO)Oc3ccc(F)c(C(N)=O)c3F)oc2Br)s1` (stereo not drawn) [Compound 245, 3-(1-(5-bromo-4-(2,4-dimethylthiazol-5-yl)oxazol-2-yl)-2-hydroxyethoxy)-2,6-difluorobenzamide], the MIC is reported as greater than 16 µg/mL. Work on `CN(Cc1ccncn1)C(=O)OCC(Oc1ccc(F)c(C(N)=O)c1F)c1nc(-c2ccc(C(F)(F)F)cc2)c(Br)o1` (stereo not drawn) [Compound 197, 2-(5-bromo-4-(4-(trifluoromethyl)phenyl)oxazol-2-yl)-2-(3-carbamoyl-2,4-difluorophenoxy)ethyl methyl(pyrimidin-4-ylmethyl)carbamate] yielded an MIC of 0.25 to 1 µg/mL (≈ 0.381 to 1.52 µM). With `CC(Oc1ccc(F)c(C(N)=O)c1F)c1nc(Br)c(Cl)s1` (stereo not drawn) [Compound 24] the MIC was 1 to 16 µg/mL (≈ 2.51 to 40.2 µM). Compound `COc1cccc(-c2nc(C(COC(C)=O)Oc3ccc(F)c(C(N)=O)c3F)oc2Br)c1` (stereo not drawn) [Compound 108, 2-(5-bromo-4-(3-methoxyphenyl)oxazol-2-yl)-2-(3-carbamoyl-2,4-difluorophenoxy)ethyl acetate] has an MIC greater than 16 µg/mL. With `Cn1cc(CNC(=O)OCC(Oc2ccc(F)c(C(N)=O)c2F)c2nc(-c3ccc(C(F)(F)F)cc3)c(Br)o2)cn1` (stereo not drawn) [Compound 198, 2-(5-bromo-4-(4-(trifluoromethyl)phenyl)oxazol-2-yl)-2-(3-carbamoyl-2,4-difluorophenoxy)ethyl ((1-methyl-1H-pyrazol-4-yl)methyl)carbamate] the MIC was 0.25 to 1 µg/mL (≈ 0.388 to 1.55 µM). Work on `CC(=O)OCC(Oc1ccc(F)c(C(N)=O)c1F)c1nc(-c2ccc(-c3noc(C)n3)cc2)c(Br)o1` (stereo not drawn) [Compound 82, 2-(5-bromo-4-(4-(5-methyl-1,2,4-oxadiazol-3-yl)phenyl)oxazol-2-yl)-2-(3-carbamoyl-2,4-difluorophenoxy)ethyl acetate] yielded an MIC of 1 to 16 µg/mL. `CCOc1cc2nc(C(C)Oc3ccc(F)c(C(N)=O)c3F)sc2nc1Br` (stereo not drawn) [Compound 25, 3-(1-(5-bromo-6-ethoxythiazolo[5,4-b]pyridin-2-yl)ethoxy)-2,6-difluorobenzamide] gave an MIC of 0.25 to 1 µg/mL (≈ 0.546 to 2.18 µM). With `Cc1nc(-c2nc(C(CO)Oc3ccc(F)c(C(N)=O)c3F)oc2Br)sc1C` (stereo not drawn) [Compound 240, 3-(1-(5-bromo-4-(4,5-dimethylthiazol-2-yl)oxazol-2-yl)-2-hydroxyethoxy)-2,6-difluorobenzamide] the MIC was greater than 16 µg/mL. In the case of `NC(=O)c1c(F)ccc(OC(COC(=O)Nc2cccnc2)c2nc(-c3ccc(C(F)(F)F)cc3)c(Br)o2)c1F` (stereo not drawn) [Compound 170, 2-(5-bromo-4-(4-(trifluoromethyl)phenyl)oxazol-2-yl)-2-(3-carbamoyl-2,4-difluorophenoxy)ethyl pyridin-3-ylcarbamate], the MIC is reported as 0.25 to 1 µg/mL (≈ 0.399 to 1.59 µM). `NC(=O)c1c(F)ccc(O[C@H](CO)c2nc(-c3ccc(F)cc3)c(Br)o2)c1F` [Compound 279B, (R)-3-(1-(5-bromo-4-(4-fluorophenyl)oxazol-2-yl)-2-hydroxyethoxy)-2,6-difluorobenzamide] gave an MIC of 0.25 to 1 µg/mL (≈ 0.547 to 2.19 µM).

Source: US9511073B2, “Aromatic amides and uses thereof” (TAXIS Pharmaceuticals, Inc., priority 2011, dated 2016)
